The values that follow come from article PMC5608758, “A brain-targeting lipidated peptide for neutralizing RNA-mediated toxicity in Polyglutamine Diseases” (Scientific Reports, 2017).

Data set [1] can be described thus: In vitro stability in rat plasma. Format: in vitro ADME. As to conditions: for remaining at 3 h, 2000 ng/mL: rat; for remaining at 1 h, 500 ng/mL / remaining at 3 h, 1000 ng/mL: LLOQ 12.5 ng/mL P3V8. How it is done:
Sprague-Dawley (SD) rats (male, 180-200 g) were supplied by the Laboratory Animal Services Centre at The Chinese University of Hong Kong. All animal studies were conducted under the approval of the Animal Ethics Committee of The Chinese University of Hong Kong, and were performed in accordance with relevant guidelines and regulations. Blank rat brain homogenate was prepared by ultrasonic probe homogenization (Micoson XL-2000, Misonix, […], USA) of brains collected from the control rats. Blank rat plasma was prepared by centrifugation (8000 rcf for 3.5 min) of blood collected from control rats. […] The mixtures were incubated at 37 °C with 100 rpm in a water bath for 1 or 3 hr. […] The supernatant was collected for LC/MS/MS analysis.

The nature of data set [2]: Plasma pharmacokinetic study in SD rat. As for the experimental part:
SD rats (180–200 g) were anesthetized with an intraperitoneal injection of ketamine (60 mg/kg) and xylazine (6 mg/kg) and received a minor surgery of cannulation with a polythene tube (0.4 mm i.d., 0.8 mm o.d., Harvard Apparatus, Holliston, MA, USA) in the left jugular vein. The rats received an overnight recovery with free access to food and water. […] For the pharmacokinetic study, after the drug administration, blood samples were collected from the catheter at appropriate time intervals (2, 5, 10, 15, 20, 30, 45, 60, and 90 min). After each collection, 0.2 mL of saline containing 25 IU heparin was injected to compensate for the blood loss. Plasma was collected after centrifugation at 8000 rcf for 3.5 min and stored at −80°C until analysis. For brain uptake study, at 20 min, the rat was anesthetized and perfused by 500 mL saline, and the whole brain was collected. The brain was wiped by tissue paper to remove excess water, meninges and blood vessels followed by storage at −80 °C until analysis.
Aliquot of plasma sample (80 μL) was mixed with 160 μL acetonitrile. The mixture was vortexed for 1 min and followed by centrifugation at 13000 rcf for 10 min. The supernatant was collect and subjected to LC/MS/MS analysis.
Agilent 6430 Triple Quadrupole LC/MS/MS system (Agilent Technologies, CA, USA) was employed for the analysis. For analysis of P3V8, chromatographic separation was achieved on a SunFire C8 Column (250 mm × 4.6 mm, 5 µm). The mobile phase of water containing 0.2% formic acid (A) and acetonitrile (B) was used with a gradient elution (0–5 min, 20–70% B). The flow rate was 0.8 mL/min. Multiple reactions monitoring (MRM) with fragmentation transition of 500 to 129 in positive ion mode was employed for quantization of P3V8. […] Mobile phase of water (A) and acetonitrile (B) was used. The gradient elution for plasma samples was 0–4 min, 30–95% B, and for brain samples was 0–9 min, 10–95% B. The flow rate was 0.8 mL/min.
Plasma concentration verse time profiles were analyzed by WinNonlin (Pharsight Corporation, Mountain View, CA, USA, Version 2.1) to obtain the pharmacokinetics parameters. Other data were analyzed by one-way ANOVA followed by post hoc Tukey test or unpaired t-test. “*”, “**”, “***” and “****” represent P < 0.05, P < 0.01, P < 0.001 and P < 0.0001 respectively, which are considered statistically significant.

The subject of a further data set is expanded MJD CAG78 RNA. In words: Isothermal titration calorimetry binding assay, expanded CAG RNA. How it is done:
(§1) Experiments were carried out using a MicroCal iTC200 isothermal titration calorimeter (GE Healthcare) at 25 °C. Data were analyzed using the Origin® scientific plotting software version 7 (Microcal Software Inc.). All RNAs and peptides were dissolved in binding buffer (20 mM MOPS, pH 7.0; 300 mM NaCl) and 0.7 mM of peptide was titrated into 0.5 µM of RNA for each experiment. The concentration of RNA was estimated with appropriate extinction coefficients at 260 nm on a Nanodrop 2000 (Thermo Scientific). A reference power of 8 μcal/s was used with an initial 0.5 µl of injection of peptide followed by 2 µl for all subsequent titrations points with a 60 sec initial equilibrium delay and 150 sec pause between injections. The samples were stirred at a speed of 1000 rpm throughout the experiment. The thermal titration data were fitted to the ‘one binding site model’ to determine the dissociation constant (KD). Each experiment was repeated at least 3 times with consistent results obtained.
(In ITC the heat of successive injections is recorded.)

The test system of data set [3] is pre-45s rRNA in EGFP CAG78 RNA-expressing HEK293 cells. Nature of the data set: Real-time PCR of pre-45s rRNA level in cells. Format: cell-based. The settings on record: peptide transfected with DeliverX. As for the experimental part: HEK293 cells were cultured at 37 °C with 5% CO2 in DMEM supplemented with 10% FBS and 1% penicillin-streptomycin. Primary rat cortical neurons were isolated and cultured as previously described. Transient transfection of HEK293 cells was performed using Lipofectamine 2000 (Life Technologies). P3V8 were delivered to HEK293 cells using the DeliverX (DX) Peptide Transfection Kit (Affymetrix) 4 hr after DNA transfection. At least two batches of independently synthesized peptides were used in the experiments.
RNA was extracted from cells or ten 12 day-old adult fly heads by Trizol reagent (Life Technologies), and 1 μg of purified RNA was then used for reverse-transcription using the ImPromII™ Reverse Transcription System (Promega). Random hexamer (Roche) was used as primers in reverse transcription. Taqman gene expression assays were performed on an ABI 7500 Real-time PCR system and data were analyzed as previously described. The following probes were used: pre-45s rRNA (Assay ID: AILJIZM), pre-rRNA (Assay ID: AIMSG5U), Drosophila GAPDH (Assay ID: Dm01841186) and human actin (Assay ID: Hs99999903_m1). Each experiment was repeated at least 3 times.
A general note: In qPCR the cycle at which signal appears reflects the starting amount.

Another data set addresses MJD CAA/G78 RNA. In words: Isothermal titration calorimetry binding assay, expanded CAA/G RNA. As to conditions: ITC; 0.7 mM P3V8 titrated into 0.5 µM MJD CAA/G78 RNA; one binding site model; mean ± S.E.M., at least 3 independent experiments. How it is done: as §1
[4] abbreviates: male, Sprague-Dawley, rat plasma, 500 ng/mL, 37 °C, incubation 1 hr, LC/MS/MS, mean ± S.E.M. of 5, read-out: Percentage of remained.
Where [5] appears, read: male, Sprague-Dawley, rat plasma, 1000 ng/mL, 37 °C, incubation 3 hr, LC/MS/MS, mean ± S.E.M. of 5, read-out: Percentage of remained.
Where [6] appears, read: rat plasma, 2000 ng/mL, 37 °C, 100 rpm, incubation 1 hr, LC/MS/MS, mean ± S.E.M. of 5 independent experiments.
Where [7] appears, read: SD rats, intranasal, 3 μmol/kg, pre-treated with 0.5% chitosan, mean ± S.E.M. of 6.
The mark [8] stands for this setting: SD rats, intranasal, 3 μmol/kg, pre-treated with 0.5% chitosan, plasma, mean ± S.E.M. of 6.
[9] abbreviates: Sprague-Dawley, rat, in vivo, iv, 3 μmol/kg.
The mark [10] stands for this setting: Sprague-Dawley, rat, plasma, iv, 3 μmol/kg.

“And” between values parts separate entries of the source, which are not always exact repeats. Equal entries are not always repeated. Where two headings read alike, the source gives them in different places. Residues, ends and D or L forms follow the SMILES beside them. *: point of attachment. Palmitoyl = CCCCCCCCCCCCCCCC(=O)*

For the compound `CCCCCCCCCCCCCCCC(=O)N[C@@H](CC(=O)O)C(=O)NCC(=O)N[C@@H](CCCCN)C(=O)N[C@@H](CO)C(=O)N[C@@H](CCCCN)C(=O)NCC(=O)N[C@H](C(=O)N[C@@H](C)C(=O)N[C@@H](Cc1ccc(O)cc1)C(=O)N[C@H](C(=O)N[C@@H](CCC(=O)O)C(=O)N[C@@H](Cc1ccccc1)C(=O)N[C@@H](CCCCN)C(N)=O)[C@@H](C)CC)[C@@H](C)CC` [L1P3V8] (Palmitoyl-DGKSKGIAYIEFK-NH2), in data set [1] (male, Sprague-Dawley, plasma, read-out: Percentage of remained), the remaining at 3 h, 2000 ng/mL stood at 86.9 ± 5.5%. Moreover, the remaining at 1 h, 500 ng/mL in data set [1] (setting [4]) amounted to 88.1 ± 4.9%. In addition, the remaining at 3 h, 500 ng/mL in data set [1] (male, Sprague-Dawley, rat plasma, 500 ng/mL, 37 °C, incubation 3 hr, LC/MS/MS, mean ± S.E.M. of 5, read-out: Percentage of remained) was found to be 73.8 ± 5.7%. Also, in data set [1] (setting [5]), the remaining at 3 h, 1000 ng/mL was determined as 81.2 ± 1.5%. Also, the remaining at 1 h, 2000 ng/mL in data set [1] (male, Sprague-Dawley, rat plasma, 2000 ng/mL, 37 °C, 100 rpm, incubation 1 hr, LC/MS/MS, mean ± S.E.M. of 5 independent experiments, read-out: Percentage of remained) turned out to be 98.8 ± 5%. Besides, the Percentage of remained in data set [1] (rat plasma, 1000 ng/mL, 37 °C, incubation 1 hr, LC/MS/MS, mean ± S.E.M. of 5) is listed as 98.7 ± 3.9 %. Moreover, in data set [1] (setting [6]), the Percentage of remained result is recorded as “nearly all L1P3V8 remained intact”. In data set [2] (setting [7]), the AUC0-last is listed as 2277 ± 558^*** min * nmol/L, the T1/2 was 37 ± 5 min and the Tmax worked out at 18 ± 1 min. Further, in data set [2] (setting [8]), the Cmax is 74 ± 13^*** nmol/L. The same compound returned a level at time molar at 1.5 h in data set [2] (Sprague-Dawley, rat, in vivo, iv, 3 umol/kg) of 190 nM. For the same compound, in data set [2] (setting [9]), the AUC(0-t) is 2.99 µM·h, the Cmax was 10400 ± 1220 nM, the Tmax is 2 min and the half-life came to 17 ± 4 min.
For the compound Ac-DGKSKGIAYIEFK-NH2 [P3V8], the remaining at 3 h, 2000 ng/mL in data set [1] (male, Sprague-Dawley, rat plasma, read-out: Percentage of remained) was under 0.6%. For the same compound, the remaining at 1 h, 500 ng/mL in data set [1] (setting [4]) was under 2.5%. For the same compound, in data set [1] (male, Sprague-Dawley, rat plasma, 1000 ng/mL, 37 °C, incubation 1 hr, LC/MS/MS, mean ± S.E.M. of 5, read-out: Percentage of remained), the remaining at 1 h, 1000 ng/mL was found to be 8.6 ± 0.5%. Besides, the remaining at 3 h, 1000 ng/mL in data set [1] (setting [5]) is under 1.3%. Moreover, the Percentage of remained in data set [1] (setting [6]) was 20.7 ± 3.3%; in data set [1] (rat plasma, 2000 ng/mL, 37 °C, 100 rpm, incubation 3 hr, LC/MS/MS, mean ± S.E.M. of 5, LLOQ 12.5 ng/mL P3V8, 100 ng/mL L1P3V8) it was “almost completely degraded”. Moreover, in the data set with expanded MJD CAG78 RNA (ITC KD relative to P3), the “improvement of binding affinity for expanded CAG RNA over P3” value is “more than 20 fold”. Further, the Kd on expanded MJD CAG78 RNA (ITC, 25 °C, 20 mM MOPS pH 7.0, 300 mM NaCl, 0.7 mM peptide titrated into 0.5 µM MJD CAG78 RNA, one binding site model, mean ± S.E.M., at least 3 independent experiments) was found to be 330 ± 40 nM; on MJD CAA/G78 RNA, 2940 ± 960 nM. In data set [3], the “restoration of pre-45s rRNA level” value is “dose-dependent restoration”. For the same compound, the AUC0-last in data set [2] (setting [7]) came to 85 ± 32 nmol·min/L. In addition, the Tmax is 15 min and 15 ± 4 min in data set [2] (setting [7]); 2 min in data set [2] (Sprague-Dawley, rat, plasma, iv, 3 umol/kg). The Cmax in data set [2] (setting [8]) amounted to 12 ± 2 nM; in data set [2] (setting [10]) it was 452 ± 22 nM. Also, the AUC(0-t) in data set [2] (setting [10]) was 0.0202 µM·h.

The Tmax is the time at which the peak concentration occurs. Usually Cmax stands for the highest concentration seen after dosing. The term AUC(0-t) denotes exposure summed from dosing to a finite time, without extrapolation to infinity. By half-life is commonly meant the time needed for the level to fall by half in the phase considered. Low values mean rapid decline, high ones slow decline. A word on the Kd: it is the constant that tells how readily two partners part at equilibrium.
